This experiment has as its system microorganisms from different sectors (molds, yeasts, bacteria). The source says:
The product obtained in example 2 was used in a test of antimicrobial activity.

The record followed here is patent US20040115249A1, “Ionic compounds of quaternary ammonium cations with anions of preservation acids, preparation thereof, and use thereof for preservation” (priority 2002, published 2004).

Consider “n-alkyldimethylethylbenzylammonium Sorbate [Example 2]”, for which the minimum inhibitory concentrations result was “Very low”.
